Positions count from the first letter of the chain named.
How the values were obtained:
Test in all cases: Activation constant from initial rates with varied 3-PGA (0-1 mM) at 2 mM ATP and 2 mM G-1-P, pH 7.4, 15 mM MgCl2, fitted to V = Vmin + Vmax*X/(Ka + X).
Type in all cases: biochemical
E123G, R331K = biological target: T1, E123G, R331K (Zea mays, UniProt P55241+Q947C0, E123G/R331K)
T1 construct: BT2 variant with wild type SH2, E. coli, purified
From the text: (§1) All reactions were developed as above.

E123Q = biological target: T2, E123Q (Zea mays, UniProt P55241+Q947C0, E123Q)
T2 construct: BT2 variant with wild type SH2, E. coli, purified
From the text: as §1

R331K = biological target: T3, R331K (Zea mays, UniProt P55241+Q947C0, R331K)
T3 construct: BT2 variant with wild type SH2, E. coli, purified
From the text: as §1

E123V = biological target: T4, E123V (Zea mays, UniProt P55241+Q947C0, E123V)
T4 construct: BT2 variant with wild type SH2, E. coli, purified
From the text: as §1

L404K = biological target: T5, L404K (Zea mays, UniProt P55241+Q947C0, L404K)
T5 construct: BT2 variant with wild type SH2, E. coli, purified
From the text: as §1

L404H = biological target: T6, L404H (Zea mays, UniProt P55241+Q947C0, L404H)
T6 construct: BT2 variant with wild type SH2, E. coli, purified
From the text: as §1

K402R = biological target: T7, K402R (Zea mays, UniProt P55241+Q947C0, K402R)
T7 construct: BT2 variant with wild type SH2, E. coli, purified
From the text: as §1

SH2-E = biological target: T8, SH2-E (Zea mays, UniProt P55241+Q947C0, N131R/T142F/A160T/Q261S/A396S/V416I/C424V/S444A)
T8 construct: SH2-E with wild type BT2 (SH2-E/BT2-WT), E. coli, purified
T8 sequence (Q947C0 1-475): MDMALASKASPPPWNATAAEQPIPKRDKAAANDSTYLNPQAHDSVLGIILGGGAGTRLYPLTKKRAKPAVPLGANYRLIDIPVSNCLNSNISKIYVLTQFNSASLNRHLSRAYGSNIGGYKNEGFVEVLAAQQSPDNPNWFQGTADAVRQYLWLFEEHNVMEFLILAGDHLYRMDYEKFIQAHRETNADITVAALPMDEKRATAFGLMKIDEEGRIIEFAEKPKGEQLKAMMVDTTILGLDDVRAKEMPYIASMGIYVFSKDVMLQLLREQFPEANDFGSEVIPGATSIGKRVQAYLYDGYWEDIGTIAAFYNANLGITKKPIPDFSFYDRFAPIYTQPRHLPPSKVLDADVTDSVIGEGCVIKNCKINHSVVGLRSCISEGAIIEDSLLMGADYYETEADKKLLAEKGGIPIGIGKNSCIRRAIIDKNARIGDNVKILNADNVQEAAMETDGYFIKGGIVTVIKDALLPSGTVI
T8 sequence (P55241 46-516 N131R/T142F/A160T/Q261S/A396S/V416I/C424V/S444A): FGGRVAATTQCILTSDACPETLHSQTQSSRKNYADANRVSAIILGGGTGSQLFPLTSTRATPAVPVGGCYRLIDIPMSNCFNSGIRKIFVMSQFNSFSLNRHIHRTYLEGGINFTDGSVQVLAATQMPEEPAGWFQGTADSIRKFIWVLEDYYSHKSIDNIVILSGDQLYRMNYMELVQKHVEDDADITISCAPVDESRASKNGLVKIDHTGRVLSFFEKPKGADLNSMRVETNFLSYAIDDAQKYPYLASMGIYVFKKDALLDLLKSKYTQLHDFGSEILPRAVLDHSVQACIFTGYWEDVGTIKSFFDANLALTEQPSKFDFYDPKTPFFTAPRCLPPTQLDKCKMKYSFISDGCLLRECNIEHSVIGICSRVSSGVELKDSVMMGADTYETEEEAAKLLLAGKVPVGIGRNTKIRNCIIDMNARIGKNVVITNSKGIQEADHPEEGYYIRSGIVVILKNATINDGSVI
From the text: as §1

[1] = biological target: T9, E123G, R331K, K402R (BT2-BF) (Zea mays, UniProt P55241+Q947C0, E123G/R331K/K402R)
T9 construct: BT2-BF with wild type SH2 (SH2-WT/BT2-BF), E. coli, purified
T9 sequence (Q947C0 1-475 E123G/R331K/K402R): T8 sequence (Q947C0 1-475) with E123G, R331K, K402R
T9 sequence (P55241 46-516): T8 sequence (P55241 46-516 N131R/T142F/A160T/Q261S/A396S/V416I/C424V/S444A) with R86N, F97T, T115A, S216Q, S351A, I371V, V379C, A399S
From the text: as §1

T4 sequence (Q947C0 entry or part of it E123V): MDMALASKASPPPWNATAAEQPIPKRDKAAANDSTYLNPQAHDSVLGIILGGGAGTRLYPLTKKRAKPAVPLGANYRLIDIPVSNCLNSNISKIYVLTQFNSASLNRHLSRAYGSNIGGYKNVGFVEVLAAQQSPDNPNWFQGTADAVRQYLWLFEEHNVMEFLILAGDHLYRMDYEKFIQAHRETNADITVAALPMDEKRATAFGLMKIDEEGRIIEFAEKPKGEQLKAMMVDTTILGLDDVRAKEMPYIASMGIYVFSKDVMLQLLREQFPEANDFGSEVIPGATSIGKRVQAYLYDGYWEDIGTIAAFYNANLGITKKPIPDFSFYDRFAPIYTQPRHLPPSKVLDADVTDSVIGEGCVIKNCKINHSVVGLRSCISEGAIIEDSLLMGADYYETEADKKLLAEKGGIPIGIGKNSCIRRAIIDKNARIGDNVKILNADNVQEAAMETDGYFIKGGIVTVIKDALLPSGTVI
T4 sequence (P55241 46-516): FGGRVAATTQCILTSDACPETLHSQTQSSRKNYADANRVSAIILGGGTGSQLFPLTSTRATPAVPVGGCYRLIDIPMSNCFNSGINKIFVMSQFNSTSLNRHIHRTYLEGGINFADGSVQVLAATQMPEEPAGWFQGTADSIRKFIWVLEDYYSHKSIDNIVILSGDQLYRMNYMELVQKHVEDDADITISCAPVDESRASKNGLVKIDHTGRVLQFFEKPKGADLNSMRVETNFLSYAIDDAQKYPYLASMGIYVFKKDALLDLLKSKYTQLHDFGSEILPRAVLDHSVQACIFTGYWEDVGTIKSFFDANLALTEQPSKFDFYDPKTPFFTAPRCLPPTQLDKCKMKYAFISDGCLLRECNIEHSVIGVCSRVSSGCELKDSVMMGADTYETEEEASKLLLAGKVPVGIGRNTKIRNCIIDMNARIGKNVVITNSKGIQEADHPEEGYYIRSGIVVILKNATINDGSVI
T6 sequence (Q947C0 1-475 L404H): as the sequence (Q947C0 entry or part of it E123V) above, with V123E, L404H counted along it
T7 sequence (Q947C0 1-475 K402R): as the sequence (Q947C0 entry or part of it E123V) above, with V123E, K402R counted along it
T1 sequence (Q947C0 1-475 E123G/R331K): as the sequence (Q947C0 entry or part of it E123V) above, with V123G, R331K counted along it
T5 sequence (Q947C0 1-475 L404K): as the sequence (Q947C0 entry or part of it E123V) above, with V123E, L404K counted along it
T3 sequence (Q947C0 1-475 R331K): as the sequence (Q947C0 entry or part of it E123V) above, with V123E, R331K counted along it
T2 sequence (Q947C0 1-475 E123Q): as the sequence (Q947C0 entry or part of it E123V) above, with V123Q counted along it

O=C(O)[C@H](O)COP(=O)(O)O [3-PGA, 3-phosphoglycerate (3-phosphoglyceric acid)]
3-PGA Ka (activation constant) (E123G, R331K): 0.183 ± 0.024
3-PGA Ka (activation constant) (E123Q): 0.12 ± 0.022
3-PGA Ka (activation constant) (R331K): 0.07 ± 0.008
3-PGA Ka (activation constant) (E123V): 0.10 ± 0.036
3-PGA Ka (activation constant) (L404K): 0.14 ± 0.047
3-PGA Ka (activation constant) (L404H): 0.05 ± 0.008
3-PGA Ka (activation constant) (K402R): 0.077 ± 0.014
3-PGA Ka (activation constant) (SH2-E): 0.070 ± 0.01
3-PGA Ka (activation constant) [1]: 0.060 ± 0.0097

— publication PMC6300691, “Enhancement of Heat Stability and Kinetic Parameters of the Maize Endosperm ADP-Glucose Pyrophosphorylase by Mutagenesis of Amino Acids in the Small Subunit With High B Factors” (Frontiers in Plant Science, 2018)
